Drawing on paper PMC11233931, “Remodeling tumor‐associated macrophage for anti‐cancer effects by rational design of irreversible inhibition of mitogen‐activated protein kinase‐activated protein kinase 2” (MedComm, 2024), this text covers inhibition for one compound.

What is called inhibition is the change of the read-out against control, counted positive when it falls.

Holding throughout (assay): Eurofins kinase selectivity profile against 380 other human recombinant kinases (Table S2)
Holding throughout (assay type): biochemical

Assay [1] addresses T1, 380 human recombinant protein kinases (Homo sapiens, UniProt P36897).
T1 construct: purchased Eurofins (Celle Lévescault)
T1 sequence (P36897 34-503): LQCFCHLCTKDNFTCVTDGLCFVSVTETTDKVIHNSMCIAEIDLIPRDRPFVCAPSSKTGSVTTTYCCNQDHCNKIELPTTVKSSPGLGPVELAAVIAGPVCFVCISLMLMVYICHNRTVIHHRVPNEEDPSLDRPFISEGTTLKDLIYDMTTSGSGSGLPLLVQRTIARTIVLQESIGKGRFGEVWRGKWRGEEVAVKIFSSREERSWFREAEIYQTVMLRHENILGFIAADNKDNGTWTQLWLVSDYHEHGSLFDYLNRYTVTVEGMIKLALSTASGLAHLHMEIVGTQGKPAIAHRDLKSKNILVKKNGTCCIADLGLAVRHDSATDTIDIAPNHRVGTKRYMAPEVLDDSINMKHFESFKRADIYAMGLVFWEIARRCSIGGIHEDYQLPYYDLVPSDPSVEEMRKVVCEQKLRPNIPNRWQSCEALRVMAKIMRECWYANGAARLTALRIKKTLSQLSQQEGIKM
The following applies: TGFBR1(h), read-out: Inhibition rate (%). Put shortly: (§1)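 Profiling against 380 human recombinant kinases carried out by Eurofins at various compound concentrations.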

The target in assay [2] is T2, 380 human recombinant protein kinases (Homo sapiens, UniProt P49674).
T2 construct: purchased Eurofins (Celle Lévescault)
The following applies: CK1ε(h), read-out: Inhibition rate. In outline: as §1

Assay [3] has as its target T3, 380 human recombinant protein kinases (Homo sapiens, UniProt Q13523).
T3 construct: purchased Eurofins (Celle Lévescault)
Particulars: PRP4(h), read-out: Inhibition rate. In outline:
as §1

Assay [4] addresses T4, 380 human recombinant protein kinases (Homo sapiens, UniProt Q13873).
T4 construct: purchased Eurofins (Celle Lévescault)
T4 sequence (Q13873 27-1038): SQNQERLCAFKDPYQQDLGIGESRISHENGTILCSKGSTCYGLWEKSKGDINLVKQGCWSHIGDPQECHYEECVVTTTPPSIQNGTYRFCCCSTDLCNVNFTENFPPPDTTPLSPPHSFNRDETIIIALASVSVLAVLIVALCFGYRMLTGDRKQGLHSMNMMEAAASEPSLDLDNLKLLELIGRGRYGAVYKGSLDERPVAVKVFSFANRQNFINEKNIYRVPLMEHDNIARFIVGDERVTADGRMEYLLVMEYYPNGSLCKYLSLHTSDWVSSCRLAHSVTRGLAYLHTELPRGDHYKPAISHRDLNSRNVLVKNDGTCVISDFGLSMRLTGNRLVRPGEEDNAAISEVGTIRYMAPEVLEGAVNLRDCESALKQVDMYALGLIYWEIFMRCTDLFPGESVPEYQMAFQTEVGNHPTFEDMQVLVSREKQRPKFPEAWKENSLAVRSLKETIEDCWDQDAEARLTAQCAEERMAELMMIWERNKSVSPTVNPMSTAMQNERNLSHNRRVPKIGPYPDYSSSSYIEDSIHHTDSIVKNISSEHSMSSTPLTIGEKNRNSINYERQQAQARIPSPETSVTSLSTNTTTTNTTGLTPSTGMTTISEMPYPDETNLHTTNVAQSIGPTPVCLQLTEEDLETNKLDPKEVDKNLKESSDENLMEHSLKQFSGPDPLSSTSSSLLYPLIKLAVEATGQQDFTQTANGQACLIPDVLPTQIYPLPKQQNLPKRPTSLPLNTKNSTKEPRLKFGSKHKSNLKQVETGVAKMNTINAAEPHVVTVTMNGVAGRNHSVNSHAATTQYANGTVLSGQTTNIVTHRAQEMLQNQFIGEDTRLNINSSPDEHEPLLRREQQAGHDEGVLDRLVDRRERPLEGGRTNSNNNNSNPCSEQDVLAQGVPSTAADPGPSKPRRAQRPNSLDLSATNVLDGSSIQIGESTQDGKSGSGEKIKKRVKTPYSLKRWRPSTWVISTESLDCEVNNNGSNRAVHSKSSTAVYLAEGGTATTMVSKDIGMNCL
The following applies: BMPR2(h), read-out: Inhibition rate. Put shortly:
as §1

In assay [5] the target is T5, 380 human recombinant protein kinases (Homo sapiens, UniProt Q9HBY8).
T5 construct: purchased Eurofins (Celle Lévescault)
T5 sequence (Q9HBY8 1-367): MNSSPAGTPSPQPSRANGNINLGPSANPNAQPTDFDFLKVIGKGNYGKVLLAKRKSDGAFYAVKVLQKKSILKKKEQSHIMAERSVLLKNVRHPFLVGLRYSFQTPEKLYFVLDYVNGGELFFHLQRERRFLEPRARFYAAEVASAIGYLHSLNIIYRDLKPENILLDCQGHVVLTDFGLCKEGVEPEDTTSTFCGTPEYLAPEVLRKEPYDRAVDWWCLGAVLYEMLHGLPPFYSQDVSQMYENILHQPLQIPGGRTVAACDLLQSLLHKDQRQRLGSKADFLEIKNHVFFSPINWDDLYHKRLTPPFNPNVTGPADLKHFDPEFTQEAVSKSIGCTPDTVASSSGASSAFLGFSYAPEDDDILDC
The following applies: SGK2(h), read-out: Inhibition rate (%). In outline:
as §1

T2 sequence (P49674 whole entry): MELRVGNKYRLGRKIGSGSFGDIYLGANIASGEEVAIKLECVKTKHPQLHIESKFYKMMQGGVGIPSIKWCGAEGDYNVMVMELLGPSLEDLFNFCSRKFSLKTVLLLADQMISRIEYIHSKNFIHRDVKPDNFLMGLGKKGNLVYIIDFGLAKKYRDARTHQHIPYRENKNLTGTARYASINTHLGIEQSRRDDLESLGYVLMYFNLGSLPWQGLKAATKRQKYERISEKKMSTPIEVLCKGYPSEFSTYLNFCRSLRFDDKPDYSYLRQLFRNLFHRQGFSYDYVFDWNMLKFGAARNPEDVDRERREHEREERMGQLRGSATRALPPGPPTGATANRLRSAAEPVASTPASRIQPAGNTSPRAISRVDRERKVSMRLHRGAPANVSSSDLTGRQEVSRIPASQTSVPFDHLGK
T3 sequence (Q13523 whole entry): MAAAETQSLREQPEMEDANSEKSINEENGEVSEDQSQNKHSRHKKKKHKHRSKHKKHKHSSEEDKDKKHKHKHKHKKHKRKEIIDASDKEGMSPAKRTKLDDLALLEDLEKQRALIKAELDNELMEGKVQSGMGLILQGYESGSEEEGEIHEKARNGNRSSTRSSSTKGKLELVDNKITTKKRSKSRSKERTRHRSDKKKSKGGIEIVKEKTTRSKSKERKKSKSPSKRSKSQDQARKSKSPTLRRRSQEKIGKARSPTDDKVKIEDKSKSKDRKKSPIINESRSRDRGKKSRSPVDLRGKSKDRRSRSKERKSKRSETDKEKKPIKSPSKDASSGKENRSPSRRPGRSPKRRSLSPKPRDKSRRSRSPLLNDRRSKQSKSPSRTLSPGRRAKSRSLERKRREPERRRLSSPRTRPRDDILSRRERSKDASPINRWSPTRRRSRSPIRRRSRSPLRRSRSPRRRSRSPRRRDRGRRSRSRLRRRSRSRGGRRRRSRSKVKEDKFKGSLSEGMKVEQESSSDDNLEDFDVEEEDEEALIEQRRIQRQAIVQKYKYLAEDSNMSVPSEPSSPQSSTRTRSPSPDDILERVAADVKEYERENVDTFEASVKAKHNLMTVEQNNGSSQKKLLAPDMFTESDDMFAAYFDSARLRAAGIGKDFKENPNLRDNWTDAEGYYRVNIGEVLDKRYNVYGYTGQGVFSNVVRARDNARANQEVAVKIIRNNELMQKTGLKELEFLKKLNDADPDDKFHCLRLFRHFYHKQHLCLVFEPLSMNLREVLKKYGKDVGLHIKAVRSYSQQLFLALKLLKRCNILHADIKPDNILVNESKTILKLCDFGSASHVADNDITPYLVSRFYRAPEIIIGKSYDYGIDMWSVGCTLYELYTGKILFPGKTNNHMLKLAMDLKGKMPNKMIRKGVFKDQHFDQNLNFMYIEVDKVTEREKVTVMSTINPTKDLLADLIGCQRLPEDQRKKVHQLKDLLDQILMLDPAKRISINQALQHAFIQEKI

Turning to `C=CC(=O)Nc1cc(-c2cc(-c3cc4c([nH]3)CCNC4=O)ccn2)ccc1OC(F)(F)F` [compound 11], the inhibition at 0.01 µM in assay [1] (10 nM) is -7%; in assay [2] (10 nM), -5%; in assay [3] (10 nM), -1%; in assay [4] (10 nM), 8%; in assay [5] (10 nM), -10%. In addition, the inhibition at 0.1 µM in assay [1] (100 nM) was -2%; in assay [2] (100 nM), 4%; in assay [3] (100 nM) it was -3%; in assay [4] (100 nM), 13%; in assay [5] (100 nM), -7%. The inhibition at 1 µM was -4% in assay [1] (1000 nM); 34% in assay [2] (1000 nM); 12% in assay [3] (1000 nM); 28% in assay [4] (1000 nM); 0% in assay [5] (1000 nM).
